Measured values reported in patent EP0580459B1, “Substituted Phenylimidazolidins, their use as medicaments and their pharmaceutical compositions containing them” (HOECHST MARION ROUSSEL, priority 1992, dated 1994).

Columns and labels:
[1] = target: T1, récepteur androgène (Rattus norvegicus, UniProt P15207); assay: Relative binding affinity (ARL) for the androgen receptor: displacement of tritiated testosterone in prostate cytosol; parameters: species or system rats mâles Sprague. Dawley EOPS; conditions: Incubation 24 hours at 0°C; prostate cytosol of castrated rats; ARL=100 (CH)/(CX), testosterone = 100
T1 construct: Des aliquotes du surnageant obtenu (=cytosol), sont incubées 30 minutes et 24 heures à 0°C; from tissue; host or cells: prostate cytosol of castrated male Sprague-Dawley rats
T1 sequence (P15207 1-902): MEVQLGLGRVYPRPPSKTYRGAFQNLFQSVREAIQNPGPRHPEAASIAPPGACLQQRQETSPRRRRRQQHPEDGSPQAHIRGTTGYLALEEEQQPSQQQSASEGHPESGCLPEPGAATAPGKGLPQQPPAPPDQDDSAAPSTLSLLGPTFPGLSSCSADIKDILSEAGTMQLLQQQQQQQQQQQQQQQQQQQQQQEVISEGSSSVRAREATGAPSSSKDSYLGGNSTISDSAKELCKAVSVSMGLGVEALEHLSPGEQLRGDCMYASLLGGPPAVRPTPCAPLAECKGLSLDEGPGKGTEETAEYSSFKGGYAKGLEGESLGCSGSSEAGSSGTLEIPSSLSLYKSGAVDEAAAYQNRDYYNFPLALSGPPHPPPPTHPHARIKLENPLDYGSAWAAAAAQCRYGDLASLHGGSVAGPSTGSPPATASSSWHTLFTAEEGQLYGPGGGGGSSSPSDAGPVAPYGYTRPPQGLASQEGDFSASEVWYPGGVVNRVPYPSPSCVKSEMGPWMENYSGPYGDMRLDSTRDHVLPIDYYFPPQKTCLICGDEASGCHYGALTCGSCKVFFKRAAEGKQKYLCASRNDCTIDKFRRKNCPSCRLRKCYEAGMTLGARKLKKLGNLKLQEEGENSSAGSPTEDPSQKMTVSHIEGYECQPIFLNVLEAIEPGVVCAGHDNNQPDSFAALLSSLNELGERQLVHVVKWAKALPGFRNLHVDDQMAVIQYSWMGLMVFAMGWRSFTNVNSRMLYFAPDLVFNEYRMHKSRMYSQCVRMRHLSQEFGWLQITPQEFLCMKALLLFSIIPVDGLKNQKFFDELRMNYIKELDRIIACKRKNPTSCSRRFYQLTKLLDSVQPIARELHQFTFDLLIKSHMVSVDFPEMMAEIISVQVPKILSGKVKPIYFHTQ
Experimental: 1) Etude de l'affinité des produits de l'invention pour le récepteur androgène
Des rats mâles Sprague. Dawley EOPS de 180-200 g, castrés de 24 heures, sont sacrifiés, les prostates prélevées, pesées et homogénéisées à 0°C à l'aide d'un potter verre-verre, dans une solution tamponnée (Tris lOmM, saccharose 0,25M, PMSF (phénylméthanesulfonylfluoride) 0,1mM, Molybdate de sodium 20mM, HCl pH 7,4; auxquels on ajoute extemporanément 2mM de DTT (DL dithiothreitol), à raison de 1 g de tissu pour 8 ml de tampon.
L'homogénat est ensuite ultracentrifugé à 0°C, 30 minutes à 209 000 g.
Calcul de l'affinité relative de liaison (ARL).
On trace les 2 courbes suivantes : le pourcentage de l'hormone tritiée liée B/T en fonction du logarithme de la concentration de l'hormone de référence froide et B/T en fonction du logarithme de la concentration du produit froid testé. On détermine la droite d'équation I50=(B/Tmax + B/Tmin)/2. B/T max= % de l'hormone tritiée liée pour une incubation de cette hormone tritiée à la concentration (T). B/T min= % de l'hormone tritiée liée pour une incubation de cette hormone tritiée à la concentration (T) en présence d'un grand excès d'hormone froide (2500.10^-9M) .
Les intersections de la droite I50 et des courbes, permettent d'évaluer les concentrations de l'hormone de référence froide (CH) et du produit froid testé (CX) qui inhibent de 50 % la liaison de l'hormone tritiée sur le récepteur.

[2] = tested on: ornithine décarboxylase rénale; assay: Androgen / anti-androgen activity by assay of renal ornithine decarboxylase in castrated mice given testosterone propionate; format: in vivo, souris mâles SWISS; conditions: with testosterone propionate 3 mg/kg s.c., kidneys 20 hours after treatment, relative to controls given testosterone propionate only; for % d'inhibition de l'ODL Test A: Test A: percutaneous route, 1,5 mg/kg in 10 µl
Experimental: 2) Détermination de l'activité androgène ou anti-androgène des produits de l'invention à l'aide du dosage de l'ornithine décarboxylase.
- Protocole de traitement
20 heures après les traitements, les animaux sont sacrifiés, les reins prélevés, puis homogénéisés à 0°C , à l'aide d'un broyeur téflon-verre dans 10 volumes de tampon Tris-HCl 50 mM (pH 7,4) contenant 250 uM de phosphate de pyridoxal, 0,1 mM EDTA, et 5 mM de dithiothreitol. L'homogenat est ensuite centrifugé à 209000 g pendant 30 mn.
A 37°C, l'ornithine décarboxylase rénale transforme un mélange isotopique d'ornithine froide et d'ornithine tritiée en putrescine froide et putrescine tritiée.
La putrescine est ensuite recueillie sur des papiers sélectifs, échangeurs d'ions. Après séchage, l'excès d'ornithine tritiée et froide non transformée est éliminé, par 3 lavages d'ammoniaque 0,1 M. Les papiers sont séchés, puis la radioactivité est comptée après addition de scintillant Aqualite.
Les résultats sont exprimés en fmoles ([…]) de putrescine tritiée formée/heure/mg de protéines.
Test A : les produits sont administrés par voie percutanée à 1,5 mg/kg sous un volume de 10 µl. Test B : les produits sont administrés par voie orale à 1 mg/kg. Test C : les produits sont administrés par voie orale à 3 mg/kg.

CC(C)N1C(=S)N(c2ccc(C#N)c(C(F)(F)F)c2)C(=O)C1(C)C [Exemple 6, 4-(4,4-diméthyl 3-(1-méthyléthyl) 5-oxo 2-thioxo 1-imidazolidinyl) 2-(trifluorométhyl) benzonitrile]
ARL (affinité relative de liaison) [1]: 28 | % d'inhibition de l'ODL Test A [2]: 35%

CC1(C)C(=O)N(c2ccc(C#N)c(C(F)(F)F)c2)C(=S)N1CCCCO [Exemple 4, 4-(4,4-diméthyl 3-(4-hydroxybutyl) 5-oxo 2-thioxo 1-imidazolidinyl) 2-(trifluorométhyl) benzonitrile]
ARL (affinité relative de liaison) [1]: 300 | % d'inhibition de l'ODL Test A [2]: 78%

CC1(C)C(=O)N(c2ccc(C#N)c(C(F)(F)F)c2)C(=S)N1CCO [Exemple 2, 4-(4,4-diméthyl 3-(2-hydroxyéthyl) 5-oxo 2-thioxo 1-imidazolidinyl) 2-(trifluorométhyl) benzonitrile]
ARL (affinité relative de liaison) [1]: 163 | % d'inhibition de l'ODL Test A [2]: 32% | % d'inhibition de l'ODL Test C ([2]; Test C: oral route, 3 mg/kg): 67%

COCCN1C(=S)N(c2ccc(C#N)c(C(F)(F)F)c2)C(=O)C1(C)C [Exemple 5, 4-(4,4-diméthyl 3-(2-méthoxyéthyl) 5-oxo 2-thioxo 1-imidazolidinyl) 2-(trifluorométhyl) benzonitrile]
ARL (affinité relative de liaison) [1]: 81 | % d'inhibition de l'ODL Test A [2]: 62%

CC1(C)C(=O)N(c2ccc(C#N)c(C(F)(F)F)c2)C(=O)N1CCCCO [Exemple 1, 4-(4,4-diméthyl 2,5-dioxo 3-(4-hydroxybutyl) 1-imidazolidinyl) 2-(trifluorométhyl) benzonitrile]
ARL (affinité relative de liaison) [1]: 31 | % d'inhibition de l'ODL Test A [2]: 40% | % d'inhibition de l'ODL Test B ([2]; Test B: oral route, 1 mg/kg): 36%

CC1(C)C(=O)N(c2ccc(C#N)c(C(F)(F)F)c2)C(=S)N1CCCO [Exemple 3, 4-(4,4-diméthyl 3-(3-hydroxypropyl) 5-oxo 2-thioxo 1-imidazolidinyl) 2-(trifluorométhyl) benzonitrile]
% d'inhibition de l'ODL Test A [2]: 41%
